Reference: article PMC3667675 (ChemMedChem, 2011)
Square brackets hold non-standard residues; d marks the D form. Peptide text beside a SMILES is read from it.

Tests used:
KOR [1] = test: Radioligand binding assay, cloned KOR in CHO cell membranes, [3H]diprenorphine; details: read-out: Ki (nM ± SEM) KOR, mean ± SEM
MOR [2] = type: binding; details: read-out: Ki (nM ± SEM) MOR; CHO membranes, [3H]DAMGO, mean ± SEM
DOR = test: Radioligand binding assay, cloned DOR in CHO cell membranes, [3H]DPDPE; details: read-out: Ki (nM ± SEM) DOR, mean ± SEM
KOR [3] = test: Ligand-stimulated [35S]GTPγS binding assay, KOR expressing CHO cell membranes; type: biochemical; details: ratio of KB values
MOR [4] = biological target: MOR (Rattus norvegicus, UniProt P33535); test: biochemical
C57Bl/6J mice = type: in vivo
opioid receptors = type: in vivo, C57Bl/6J mice
KOR [5] = biological target: KOR (Mus musculus, UniProt P33534); type: in vivo, C57Bl/6J mice; details: U50,488 10 mg/kg i.p.; 3 h pretreatment
KOR (Mus musculus, UniProt P33534), sequence (P33534 whole entry): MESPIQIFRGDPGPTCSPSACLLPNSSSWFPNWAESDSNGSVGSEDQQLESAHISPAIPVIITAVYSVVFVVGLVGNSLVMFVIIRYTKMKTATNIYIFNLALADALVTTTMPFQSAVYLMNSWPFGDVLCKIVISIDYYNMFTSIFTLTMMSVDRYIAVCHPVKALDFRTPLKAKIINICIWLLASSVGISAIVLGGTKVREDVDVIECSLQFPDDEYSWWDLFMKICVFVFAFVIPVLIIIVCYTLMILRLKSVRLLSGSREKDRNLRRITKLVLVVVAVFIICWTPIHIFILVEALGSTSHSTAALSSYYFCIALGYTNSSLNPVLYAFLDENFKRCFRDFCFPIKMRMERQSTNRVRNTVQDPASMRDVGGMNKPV

MOR (Rattus norvegicus, UniProt P33535), sequence (P33535 whole entry): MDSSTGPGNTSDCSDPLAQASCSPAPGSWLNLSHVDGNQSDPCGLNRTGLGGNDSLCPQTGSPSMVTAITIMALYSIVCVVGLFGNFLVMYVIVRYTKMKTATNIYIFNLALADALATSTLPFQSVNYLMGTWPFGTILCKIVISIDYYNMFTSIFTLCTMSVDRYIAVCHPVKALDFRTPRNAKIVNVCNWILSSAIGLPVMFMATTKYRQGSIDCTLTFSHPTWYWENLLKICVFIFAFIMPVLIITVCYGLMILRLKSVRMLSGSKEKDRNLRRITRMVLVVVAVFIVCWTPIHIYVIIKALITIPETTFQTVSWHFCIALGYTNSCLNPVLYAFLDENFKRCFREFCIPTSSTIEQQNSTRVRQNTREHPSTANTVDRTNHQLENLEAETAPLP

C[C@@H]1NC(=O)[C@H](Cc2c[nH]c3ccccc23)NC(=O)[C@H](Cc2ccccc2)NC(=O)[C@H]2CCCN2C1=O [Peptide 2, cyclo[Ala-DPro-Phe-Trp]] (cyclo(A[dP]FW))
Ki (KOR [1]): 8.03 ± 1.67 nM | Ki (MOR [2]): 32.1 ± 3.9 nM | Ki (DOR): 8680 ± 1270 nM | KOR antagonist potency relative to parent peptide 1 (more potent) (KOR [3]): 25 fold | Kb (MOR [4]): 7.3 ± 1.6 nM | Time of peak antinociceptive response (C57Bl/6J mice; after i.c.v. administration): 30 min | ED50 (and 95% confidence interval), antinociception (C57Bl/6J mice; i.c.v., at peak response, C57Bl/6J mice): 1.49 (0.39-7.41) nmol | Effect of naloxone pretreatment on peptide antinociception (opioid receptors; naloxone 15 nmol i.c.v., 25 min prior, peptides 2 (3 nmol), 3 (10 nmol), 4 (0.3 nmol), 5 (30 nmol) i.c.v.): significantly antagonized | Reduction of antinociceptive activity by nor-BNI pretreatment (opioid receptors; nor-BNI 10 mg/kg i.p., did not reach statistical significance): > 30% | KOR antagonist potency in vivo compared with parent peptide 1 (KOR [5]): somewhat more potent
